Assay: Tissue distribution: concentration in plasma and skeletal muscle after oral or intravenous administration
Assay type: in vivo
Settings: male, Wistar, plasma, rat
Protocol: Tissue distribution of the compound in Example 19 was compared with that of L-PDMP using 6-8 week old Wistar male rats.
As oral administration, a physiological saline containing 20 mg/ml of a test substance was administered at 100 mg/5 ml/kg, and as intravenous administration, a physiological saline containing 1.25 mg/ml of a test substance was administered to the cervical vein at 5 mg/4 ml/kg.
After the predetermined time had passed since the above administration, blood was collected from the rat cervical vein, a 3.8% sodium citrate solution was added thereto at 1/10 volume, followed by centrifugation at 3,000 rpm for 15 minutes to obtain the supernatant as a plasma sample.
Also, after the predetermined time had passed since the above administration, the skeletal muscle was collected from the femoral region of both hind legs, ice water was added thereto at 4 ml/g tissue, followed by homogenization, and the same volume of acetonitrile was added thereto, followed by vigorously stirring and centrifugation at 4000 rpm for 10 minutes to obtain the supernatant as a skeletal muscle sample.
The plasma and skeletal muscle samples were extracted by OASIS HLB solid phase extraction column (manufactured by Waters), and the concentration of the test compound in the plasma and the muscle was determined by high performance liquid chromatography (HPLC). The conditions of HPLC analysis were as follows:
Detection wavelength: 218 nm
Column: DAISO PACK SP-120-5-ODS-BP
Column temperature: 40° C.
Mobile phase: 0.1% trifluoroacetic acid solution:methanol=36:64 (for L-PDMP); 0.1% trifluoroacetic acid solution:methanol=48:52 (for the compound in Example 19)
The concentrations in the plasma and skeletal muscle of the compound in Example 19 and L-PDMP after the predetermined time has been passed since the administration of the test compounds are shown in Tables 4-6 below. The values are the mean values of at least two test samples. Specifically, Table 4, Table 5, and Table 6 show the concentrations in the plasma after the oral administration of 100 mg/kg, the concentrations in the skeletal muscle after the oral administration of 100 mg/kg, and the concentrations in the plasma after the intravenous administration of 5 mg/kg, respectively.

Structure (SMILES): CCCCCCCCCC(=O)N[C@@H](CN1CCOCC1)[C@@H](O)c1ccccc1 [L-PDMP, (1S,2S)-1-phenyl-2-decanoylamino-3-morpholino-1-propanol, reference compound]
- concentration at 10 min (intravenous administration of 5 mg/kg, 10 min): 1030 ng/mL
- concentration at 25 min (intravenous administration of 5 mg/kg, 25 min): 620 ng/mL
- concentration at 5 min (oral administration of 100 mg/kg, 5 min): 10 ng/mL
- concentration at 15 min (oral administration of 100 mg/kg, 15 min): 1360 ng/mL
- concentration at 30 min (oral administration of 100 mg/kg, 30 min): 2100 ng/mL
- concentration at 60 min (oral administration of 100 mg/kg, 60 min): 1440 ng/mL

Reference: patent publication US6407064B2, “Aminoalcohol derivative and medicament comprising the same” (Seikagaku Corporation, priority 1999, dated 2002)
